Measured values published in patent publication US7884070B2, “Linear cationic peptides having antibacterial and/or antifungal properties” (priority 2002, dated 2011).
Converted amounts (≈) assume the structure as drawn. Where a SMILES comes first, the peptide text is derived from it.

Key:
[1] = tested on: Streptococcus pneumoniae ATCC 49619; format: cell-based
[2] = tested on: Enterococcus faecalis ATCC 29212; format: cell-based
[3] = tested on: Bacillus cereus ATCC 11778; format: cell-based
[4] = tested on: Escherichia coli ATCC 35218; format: cell-based
[5] = tested on: Streptococcus agalactiae ATCC 13813; format: cell-based
Neisseria sica ATCC 9913 = format: cell-based
[6] = tested on: Enterobacter aerogenes ATCC 13048; format: cell-based
[7] = tested on: Proteus vulgaris ATCC 13315; format: cell-based
[8] = tested on: Bacillus subtilis ATCC 6633; format: cell-based
[9] = tested on: Enterococcus faecium ATCC 35667; format: cell-based
[10] = In vivo toxicity: maximal tolerated dose (MTD); details: mouse, female OFI mice, intravenous perfusion approx. 15 minutes, 28 days after an injection
Description: The maximal tolerated dose (MTD) for each peptide was determined on female OFI mice at 28 days after an injection. The MTD was defined as the maximal nonlethal dose that could be injected. The peptides were administered by the intravenous route as a perfusion of approximately 15 minutes duration. The injection volume was 10 μl/g, the perfusion rate was 1.2 ml/hour and the excipient was a solution of NaCl at 0.8%.

in vitro = details: human, human plasma
Description: The stability was determined at 37° C. After 0, 0.5, 1, 2, 4 and 6 hours, 3×200 μl were collected and added to 10 μl of internal standard (peptide no. 1) at 500 μM in water, to which 800 μl of 0.1% trifluoroacetic acid (TFA) in water was added. A volume of 1 ml of this mixture was deposited on resin C2 (EC) that had previously been equilibrated with 1 ml of 0.1% TFA in water, 1 ml of 0.1% TFA in acetonitrile and 1 ml of 0.1% TFA in water. After two washings with 1 ml of 0.1% TFA in water, the elution of peptide and of its metabolites was induced by 1 ml of 0.1% TFA in methanol. This was then dried under a stream of air and taken up in 200 μl of 0.1% TFA in water. A volume of 100 μl was analyzed by HPLC on a Luna C1 8(2) column, 3 μg, 4.6×100 mm (Phenomenex) with 0.1% TFA in water as solvent A and 0.1% TFA in acetonitrile as solvent B. A gradient of 15-45% of B in 12 minutes was used for the elution with a flow rate of 1.2 ml/min; detection was performed at 214 nm.

[11] = tested on: Enterobacter aerogenes clinical strains; format: cell-based
[12] = tested on: Acinetobacter baumanii ATCC 19606; format: cell-based
[13] = tested on: Staphylococcus aureus ATCC 25923; format: cell-based
[14] = tested on: Serratia marcescens ATCC 8100; format: cell-based
[15] = tested on: Citrobacter freundii ATCC 8090; format: cell-based
[16] = tested on: Haemophilus influenzae ATCC 49247; format: cell-based
[17] = tested on: Shigella sonnei ATCC 25931
Description: The MIC values were determined by the method of microdilution in liquid medium (NCCLS M7A5) for all of the bacterial species on 96-well polystyrene plates.
The culture medium was Mueller-Hinton broth (MHB) (pH≈7.2-7.4) with supplements according to the bacterial species studied: • MHB alone for the non-exigent species, • MHB+3% lysed horse blood for the streptococci, Listeria and Neisseria, • MHB+hemin 15 mg/l+NAD 15 mg/l+yeast extract 5 g/l for Haemophilus.
The bacterial inoculum was prepared from re-isolation performed on: • CLED agar: non-exigent strains, • blood agar+5% goat blood: streptococci, Listeria and Neisseria • chocolate agar+5% goat blood: Haemophilus, Neisseria.
The final inoculum was at ≈5·10^5 cfu/ml (colony forming units). 50 μl of bacterial inoculum was distributed per well containing an equal volume of the peptide solution diluted by half in the appropriate culture medium depending on the bacterial species (0.5 to 512 μg/ml). The cultures were incubated at 35° C. in ambient air for 16 to 20 hours (20 to 24 h for the streptococci).
Determination of the MBC values was performed after inhibition and reading of the MIC plates:
A volume of 3 μl of each concentration of antibiotic was deposited on the agar media: • MH: for the non-exigent strains, • MH+5% sheep blood: for the streptococci, Listeria, Bacillus and Neisseria, • HTM: for the Haemophilus.
The agars were incubated for 18 h at 35° C. in atmosphere: • in ambient air: for the non-exigent strains, • with 5-6% of CO2: for the streptococci, Listeria, Haemophilus and Neisseria.
The MBC is the lowest concentration of antibiotic that inhibits all bacterial growth on the transplant agar (<0. 1% of survivors).

[18] = tested on: Shigella flexneri ATCC 112022
[19] = tested on: Klebsiella pneumoniae ATCC 13883; format: cell-based
[20] = tested on: Escherichia coli ATCC 25922; format: cell-based
[21] = tested on: Staphylococcus aureus ATCC 14154; format: cell-based
[22] = tested on: Pseudomonas aeruginosa ATCC 27853; format: cell-based
[23] = tested on: Acinetobacter baumanii clinical strains; format: cell-based
Description: A volume of 3 μl of each concentration of antibiotic was deposited on the agar media: • MH: for the non-exigent strains, • MH+5% sheep blood: for the streptococci, Listeria, Bacillus and Neisseria, • HTM: for the Haemophilus. […]

[24] = tested on: Streptococcus pneumoniae ATCC 6303; format: cell-based
[25] = tested on: Micrococcus luteus ATCC 9341; format: cell-based
[26] = tested on: Staphylococcus epidermidis ATCC 12228; format: cell-based
[27] = tested on: Enterobacter cloacae ATCC 23355; format: cell-based
[28] = tested on: Streptococcus pyogenes ATCC 19615; format: cell-based
C. neoformans Cn52D = format: cell-based, Cryptococcus neoformans
Description: D. Determination of the miminimal inhibitory concentration (MIC) in liquid medium for the Filamentous Fungi and Yeast
Peptide concentrations tested: from 0.2 μg/ml to 100 μg/ml.

[29] = tested on: Salmonella typhimurium ATCC 14028; format: cell-based
[30] = tested on: Enterococcus faecalis ATCC 19433; format: cell-based
[31] = tested on: Listeria monocytogenes ATCC 19115; format: cell-based

CC(C)C[C@H](NC(=O)[C@H](CCCCN)NC(=O)[C@H](C)NC(=O)[C@H](CC(C)C)NC(=O)[C@@H](N)CCCCN)C(=O)N[C@@H](C)C(=O)N[C@@H](CCCCN)C(=O)N[C@@H](CCCCN)C(=O)N[C@@H](CC(C)C)C(=O)N[C@@H](C)C(=O)N[C@@H](CCCCN)C(=O)N[C@@H](CC(C)C)C(=O)N[C@@H](C)C(=O)N[C@@H](CCCCN)C(=O)N[C@@H](CCCCN)C(=O)N[C@@H](Cc1c[nH]cn1)C(=O)N[C@@H](CC(C)C)C(=O)N[C@@H](CCCCN)C(=O)N[C@@H](CCCCN)C(=O)N[C@@H](Cc1c[nH]cn1)C(=O)N[C@@H](CC(C)C)C(=O)N[C@@H](CCCCN)C(=O)N[C@@H](CCCCN)C(=O)N[C@@H](Cc1c[nH]cn1)C(=O)N[C@@H](CC(C)C)C(=O)N[C@@H](CCCCN)C(=O)O [Peptide 2] (H-KLAKLAKKLAKLAKKHLKKHLKKHLK-OH; N-terminus and C-terminus assumed)
MBC [1]: 256 µg/mL (≈ 84.1 µM)
MIC [1]: 16 µg/mL (≈ 5.26 µM)
MBC [2]: 32 µg/mL (≈ 10.5 µM)
MIC [2]: 32 µg/mL (≈ 10.5 µM)
MBC [3]: 8 µg/mL (≈ 2.63 µM)
MIC [3]: 8 µg/mL (≈ 2.63 µM)
MBC [4]: 2 µg/mL (≈ 0.657 µM)
MIC [4]: 2 µg/mL (≈ 0.657 µM)
MBC [5]: 8 µg/mL (≈ 2.63 µM)
MIC [5]: 8 µg/mL (≈ 2.63 µM)
MBC (Neisseria sica ATCC 9913): 0.5 µg/mL (≈ 0.164 µM)
MIC (Neisseria sica ATCC 9913): 0.5 µg/mL (≈ 0.164 µM)
MBC [6]: 16 µg/mL (≈ 5.26 µM)
MIC [6]: 16 µg/mL (≈ 5.26 µM)
MBC [7]: 4 µg/mL (≈ 1.31 µM)
MIC [7]: 4 µg/mL (≈ 1.31 µM)
MBC [8]: 8 µg/mL (≈ 2.63 µM)
MIC [8]: 8 µg/mL (≈ 2.63 µM)
MBC [9]: 32 µg/mL (≈ 10.5 µM)
MIC [9]: 16 µg/mL (≈ 5.26 µM)
MTD at 28 days [10]: 13.5 mg/kg
metabolised at 6 h, 50 µM (in vitro): ≤ 41%
MBC [11]: 8 µg/mL (≈ 2.63 µM)
MBC [12]: 2 µg/mL (≈ 0.657 µM)
MIC [12]: 2 µg/mL (≈ 0.657 µM)
MBC [13]: 32 µg/mL (≈ 10.5 µM)
MIC [13]: 16 µg/mL (≈ 5.26 µM)
MBC [14]: >512 µg/mL
MIC [14]: >512 µg/mL
MBC [15]: 8 µg/mL (≈ 2.63 µM)
MIC [15]: 8 µg/mL (≈ 2.63 µM)
MBC [16]: 32 µg/mL (≈ 10.5 µM)
MIC [16]: 32 µg/mL (≈ 10.5 µM)
MBC [17]: 2 µg/mL (≈ 0.657 µM)
MIC [17]: 2 µg/mL (≈ 0.657 µM)
MBC [18]: 2 µg/mL (≈ 0.657 µM)
MIC [18]: 2 µg/mL (≈ 0.657 µM)
MBC [19]: 32 µg/mL (≈ 10.5 µM)
MIC [19]: 32 µg/mL (≈ 10.5 µM)
MBC [20]: 2 µg/mL (≈ 0.657 µM)
MIC [20]: 2 µg/mL (≈ 0.657 µM)
MBC [21]: 64 µg/mL (≈ 21 µM)
MIC [21]: 32 µg/mL (≈ 10.5 µM)
MBC [22]: 8 µg/mL (≈ 2.63 µM)
MIC [22]: 8 µg/mL (≈ 2.63 µM)
MIC [23]: 2 µg/mL (≈ 0.657 µM)
MBC [24]: 128 µg/mL (≈ 42.1 µM)
MIC [24]: 32 µg/mL (≈ 10.5 µM)
MBC [25]: 4 µg/mL (≈ 1.31 µM)
MIC [25]: 4 µg/mL (≈ 1.31 µM)
MBC [26]: 2 µg/mL (≈ 0.657 µM)
MIC [26]: 2 µg/mL (≈ 0.657 µM)
MBC [27]: 2 µg/mL (≈ 0.657 µM)
MIC [27]: 2 µg/mL (≈ 0.657 µM)
MBC [28]: 8 µg/mL (≈ 2.63 µM)
MIC [28]: 8 µg/mL (≈ 2.63 µM)
MIC (C. neoformans Cn52D): 1.56 µg/mL (≈ 0.512 µM)
MBC [29]: 4 µg/mL (≈ 1.31 µM)
MIC [29]: 4 µg/mL (≈ 1.31 µM)
MBC [30]: 128 µg/mL (≈ 42.1 µM)
MIC [30]: 64 µg/mL (≈ 21 µM)
MBC [31]: 2 µg/mL (≈ 0.657 µM)
MIC [31]: 2 µg/mL (≈ 0.657 µM)
